Counter-ions that a name gives are not always drawn.
Legend:
hBM-MSCs [1] = assay: Secretome analysis of primed hBM-MSCs by ELISA; type: cell-based, human; conditions: vs control/untreated
Procedure: hBM-MSCs were cultured in xeno free media along with a replacement of 10% and 20% of CSSC-derived conditioned media (CSSC-CM) to reach a confluence of 80-90%. The media was then subsequently shifted to EV collect for 24-72 hours and primed conditioned media was collected (as described in example 1.1, and 1.2), and exosome isolation was performed by iodixanol density gradient method (as described in example 4.4) and enriched exosomes were obtained. Homogenous fraction F9 was considered for further functional analysis. The secretome analysis was performed using ELISA, detecting the levels of HGF, VEGF, sFLT1, IL-6, NGF.
hBM-MSCs were primed with various priming agents (small molecules) and the secretome was collected (see example 3.2-3.6). The secretome analysis was performed using ELISA, and the levels of HGF, VEGF, NGF, IL-6, sFLT1, SDF1 were detected. FIGS. 6A-6F depict bar graphs of the quantification of the secreted protein levels of HGF, VEGF, NGF, IL-6, sFLT1, and SDF-1 from hBM-MSCs primed with curcumin, 4-OI, DMF, or the combination of curcumin conditioned media and DMF.

hBM-MSCs [2] = assay: Yield of exosomes from primed hBM-MSCs; type: cell-based, human; conditions: priming of hBM-MSCs, compared to untreated (naïve) and other priming agents
Procedure: hBM-MSC was cultured in xeno-free media recommended by the manufacturer, hBM-MSC cells were grown to reach confluency of (80-90) % and treated with a Nrf2 activator (DMF-100 μM) for 24 hours before shifting and maintaining the cells in EV collect media for 24-72 hours (see example 3.3). After 72 hours, condition media was collected, and exosome isolation was performed using iodixanol density gradient protocol (as described in example 4.4).

[3] = system: NASH-induced liver spheroids; assay: Treatment of NASH-induced human liver spheroids, marker staining and albumin ELISA; type: cell-based; conditions: treatment at D17-D19 after NASH induction, ELISA at 24, 48, 72 hours; HGF 40 ng/ml
Procedure: The protocol for generating human liver spheroids and inducing a NASH phenotype in the human liver spheroids for the present study was as follows: A mix of primary hepatocytes and liver stellate cells from human donors were co-cultured at a 70:30 ratio (70 hepatocytes to 30 liver stellate cells). The cell mixture was seeded on ultra-low attachment plates and cultured to form viable liver spheroids. […] The NASH induction protocol was as follows: On day 7 post seeding, the spheroids were treated with 600 μM free fatty acid (FFA) mixture consisting of Oleic acid and Palmitic acid at a weight ratio of 2:1 for 6 days with media change every other day. After 6 days of FFA treatment (13 days post seeding), 20 ng/mL of TGF β1 was added to the FFA-containing media for a further two days of combined FFA and TGFβ1 treatment. At day 15 post seeding (after 8 days of FFA treatment and 2 days of combined FFA and TGFβ1 treatment), the media was changed to TGF β1-only treatment, with 20 ng/mL TGF β1 and without the FFA mix. […], at day 19 post seeding, the spheroids and the conditioned media were harvested for characterization. […]
Secreted albumin levels is another marker of liver health. […] The secreted albumin in the culture medium was quantified based on ELISA measurements. […]

[4] = system: NASH-induced liver spheroids; assay: Microarray gene expression profiling of NASH-induced human liver spheroids; type: cell-based
Source text: As described herein above and shown in FIGS. 15A-15F, the effect on the liver spheroids of treatment with disease-state induction agents such the FFA mixture or TGFβ1 and/or with therapeutic agents such as the exosomes can be assayed one marker (or a new markers) at a time with techniques such as immune-staining and ELISA. However, a much larger count (dozens, hundreds, thousands) of markers may be assay simultaneously using high-throughput techniques, such as microarray or next generation sequencing (NGS). FIG. 16A depicts a heatmap of changes in gene expression of liver spheroids based on microarray hybridization data. Microarray hybridization data was acquired as follows: After growth of liver spheroid samples and treatment with NASH-induction agents and/or with therapeutic agents as describe above, the liver spheroids were isolated, lysed, and mRNA was isolated, then converted to sequences of complementary DNA (cDNA). The cDNA samples were then applied to an Agilent® microarray and read with a microarray reader. The microarray analysis was performed for a predetermined transcriptome set of 22,473 genes (included in the microarray) using standard methods to obtain normalized expression values. […]
The gene expression levels of the liver spheroids in each of the different liver spheroid states were also represented and stored, respectively, as feature vectors (“spheroid state feature vectors”), with each element of a given spheroid state feature vector being a level of expression of one of the genes assayed in the microarray. The similarity (or lack of similarity) of the gene expression profile between different states was determined based on a measure of distance between pairs of feature vectors in an n-dimensional space, n being the number of genes represented in each of the feature vectors. […]

MSCs [5] = assay: MSC viability by MTT assay after ATRA treatment; type: cell-based; conditions: 0.1 μM to 500 μM for 24 and 48 hours; all treated MSCs except 0.1 μmol/L
Procedure: (§1) ATRA is found to increase the viability of MSCs. This was ascertained as the MSCs were treated with various concentrations of ATRA (0.1 μM to 500 μM) for 24 and 48 hours and their viability were examined by MTT assay. […] ATRA elevated the PGE2 levels. […] ATRA increased the expression of genes involved in MSC survival, migration and angiogenesis.

MSCs [6] = assay: PGE2 levels in MSCs pre-treated with ATRA; type: cell-based; conditions: 1, 10, 100 μmol/L, dose-dependent
Procedure: as §1

MSCs [7] = assay: Quantitative real time-PCR of MSCs treated with ATRA; type: cell-based; conditions: 1, 10, 100 μmol/L
Procedure: as §1

| Molecule | secreted HGF level (hBM-MSCs [1]) | secreted IL-6 level (hBM-MSCs [1]) | secreted NGF level (hBM-MSCs [1]) | yield of exosomes (hBM-MSCs [2]) | further results |
| --- | --- | --- | --- | --- | --- |
| C=C(CC(=O)OCCCCCCCC)C(=O)O [4-OI, 4 Octyl itaconate] | significant increase | attenuated | enhanced | higher yield | – |
| COc1cc(/C=C/C(=O)CC(=O)/C=C/c2ccc(O)c(OC)c2)ccc1O [curcumin, Curcumin] | – | attenuated | – | – | – |
| HGF: 40 ng/ml hepatic growth factor used as comparison treatment of NASH-induced liver spheroids | – | – | – | – | albumin secretion [3]: did not result in increased; recovery based on gene expression patterns, Jaccard Similarity Index coordinates ([4]; FIGS. 18A-18C gene sets): substantially more similar to the diseased state; gene expression profile of 287 liver specific genes, cluster analysis ([4]; treatment after NASH induction): most closely resembled the gene expression profile of the Diseased liver spheroid state; gene expression profile, principal component analysis ([4]; treatment at D17-D19 after NASH induction, HGF 40 ng/ml): substantially unchanged |
| COC(=O)/C=C/C(=O)OC [DMF, Dimethyl fumarate] | significant increase | attenuated | increase | higher yield | secreted SDF-1 level (hBM-MSCs [1]): increase; secreted sFLT1 level (hBM-MSCs [1]): increase |
| CC1=C(/C=C/C(C)=C/C=C/C(C)=C/C(=O)O)C(C)(C)CCC1 [ATRA, all-trans retinoic acid] | – | – | – | – | MSC viability (MSCs [5]): significantly higher; PGE2 levels (MSCs [6]): significantly increased; mRNA levels of COX-2, HIF-1, CXCR4, CCR2, VEGF, Ang-2 and Ang-4 (MSCs [7]): elevated in a dose dependent manner |
